Here are results for 7 compounds from patent EP1222183B1, “BENZOPYRAN DERIVATIVES” (priority 1999, dated 2001).

Some results are limits rather than exact numbers.

Series [1] concerns diastolic blood pressure. Briefly: Effect on diastolic blood pressure in anaesthetised dogs after i.v. administration. Format: in vivo. As to conditions: dog, dose lowering diastolic blood pressure by 25%. The procedure:
(§1) The experiments were performed according to the method of Imagawa J. et al., J. Pharmacol. Methods 22, 103-111, 1989, with substantial modifications, as follows: adult male beagle dogs, weighing 8-10 kg, were anaesthetised with pentobarbital sodium (30 mg/kg i.v. and 2 mg/kg/h i.v.), intubated and spontaneously ventilated with room air. In order to monitor systemic blood pressure (BP), a polyethylene (PE) catheter was introduced into the aortic arch through the left femoral artery. A collateral of the left femoral vein was cannulated for infusion of anaesthetic, and the right femoral vein was cannulated for administration of compounds. For intra-arterial (i.a.) injection of noradrenaline (NA), a PE catheter was introduced into the lower portion of the abdominal aorta via the right external iliac artery. Through such procedure, NA was selectively distributed to the lower urinary tract. A paramedian vertical suprapubic incision extending from the base of the pelvis to the mid-abdominal region was made and the bladder and prostate were exposed. The bladder was manually emptied with a syringe. Prostatic urethral pressure was monitored with a Mikro-tip catheter (5F) introduced into the bladder via the external urethral meatus, and withdrawn until the pressure transducer was positioned in the prostatic region of the urethra. A ligature was secured between the neck of the bladder and urethra to isolate the response of the latter and to avoid any interaction with the bladder. Another ligature was put around the Mikro-tip catheter at the external meatus, to secure the catheter itself. After a stabilising period following the surgical procedure (30 minutes), in which arterial and prostatic urethral pressure were continuously monitored as basal values, i.a. administration of NA was made at intervals of 20 minutes. The doses of NA chosen were such to produce an increase of at least 100% in urethral pressure. The test compounds were administered i.v. in a cumulative manner with intervals of 15-20 minutes between administrations. I.a. injections of NA were repeated 5 minutes after every dosing of test compound with intervals of about 10 minutes between stimulations. In order to compare the effects of the administered compound, dose/response curves (log dose transformation) were constructed by computing, at the peak effect, the percent decrease in diastolic blood pressure and the percent inhibition of the increase in urethral pressure induced by NA.

Series [2] deals with prostatic urethral pressure. Briefly: Inhibition of urethral contractions induced by noradrenaline injection in anaesthetised dogs after i.v. administration. As to conditions: dog; for ED50: Canis lupus familiaris, iv, dose inhibiting by 50% the urethral contractions induced by noradrenaline, read-out: UC ID50; for DBP/UC: ratio between the active doses (DBP ED25 / UC ID50). The format is in vivo. The procedure: as §1, with “cathe[…])” for “catheter (5F)”, “After a stabilising period following the surgical procedure (30 minutes), in which arterial and prostatic urethral pressure were continuously monitored as basal values, i.a. administration of NA was made at intervals of 20 minutes. The doses of NA chosen were such to produce an increase of at least 100% in urethral pressure. The test compounds were administered i.v. in a cumulative manner with intervals of 15-20 minutes between administrations. I.a. injections of NA were repeated 5 minutes after every dosing of test compound with intervals of about 10 minutes between stimulations.” left out

Series [3] addresses T1, human 5-HT1A-serotoninergic receptor (Homo sapiens, UniProt P08908).
T1 construct: expressed in transfected cells; host or cells: HeLa (human), stably transfected
T1 sequence (P08908 1-422): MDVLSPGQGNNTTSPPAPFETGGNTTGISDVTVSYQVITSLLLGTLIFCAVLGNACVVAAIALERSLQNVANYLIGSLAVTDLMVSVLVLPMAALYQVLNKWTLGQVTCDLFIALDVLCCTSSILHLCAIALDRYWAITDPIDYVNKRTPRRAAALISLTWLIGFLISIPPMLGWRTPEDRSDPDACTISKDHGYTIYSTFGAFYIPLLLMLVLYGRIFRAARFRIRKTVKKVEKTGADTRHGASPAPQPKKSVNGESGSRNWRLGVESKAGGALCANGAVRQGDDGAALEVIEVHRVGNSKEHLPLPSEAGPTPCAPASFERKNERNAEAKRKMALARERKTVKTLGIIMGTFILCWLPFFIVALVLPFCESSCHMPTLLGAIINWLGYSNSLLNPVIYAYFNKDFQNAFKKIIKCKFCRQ
In words: Radioligand binding ([3H]8-OH-DPAT) to cloned 5-HT1A receptor in HeLa cell membranes. Particulars: cloned human receptor in HeLa cells, 1.2 nM [3H]8-OH-DPAT, 30 minutes at 30°C; read-out: Affinity (Ki) 5-HT1A.

The test system of series [4] is prostatic urethral pressure. Particulars: dog, i.v., dose inhibiting by 50% the urethral contractions induced by noradrenaline; data from Leonardi A. et al. 1997; cited from earlier work.

For the compound `COc1ccc(Cl)cc1N1CCN(CCCNC(=O)c2cccc3c(=O)c(C)c(C(N)=O)oc23)CC1` [Example 1, 2-Carbamoyl-8-{3-[4-(5-chloro-2-methoxyphenyl)-1-piperazinyl]-propylcarbamoyl}-3-methyl-4-oxo-4H-1-benzopyran], the “DBP ED25” value in series [1] worked out at 2769 µg/kg. Further, in series [2], the ED50 stood at 0.0118 mg/kg and the DBP/UC turned out to be 234.7.

Turning to `Cc1c(-c2ccccc2)oc2c(C(=O)NCCCN3CCN(c4ccccc4OCC(F)(F)F)CC3)cccc2c1=O` [Example 15, 8-<3-{4-[2-(2,2,2-Trifluoroethoxy)-phenyl]-1-piperazinyl}propylcarbamoyl>-3-methyl-4-oxo-2-phenyl-4H-1-benzopyran], the “DBP ED25” value in series [1] is recorded as 3001 µg/kg. Besides, in series [2], the ED50 stood at 0.0049 mg/kg and the DBP/UC is listed as 612.

Regarding `Cc1c(-c2ccccc2)oc2c(C(=O)NCCCN3CCN(c4cc(Cl)ccc4OCC(F)(F)F)CC3)cccc2c1=O` [Example 22, 8-<3-{4-[5-Chloro-2-(2,2,2-trifluoroethoxy)-phenyl]-1-piperazinyl}-propylcarbamoyl>-3-methyl-4-oxo-2-phenyl-4H-1-benzopyran], the “DBP ED25” value in series [1] is given as 1266 µg/kg. In addition, in series [2], the ED50 turned out to be 0.0195 mg/kg and the DBP/UC was found to be 64.92.

As a reminder, the Ki is a measure of affinity in units of concentration, obtained from inhibition or displacement. In the case of `COc1ccc(OCC(F)(F)F)cc1N1CCN(CCCNC(=O)c2cccc3c(=O)c(C)c(C(N)=O)oc23)CC1` [Example 9, 2-Carbamoyl-8-<3-{4-[2-methoxy-5-(2,2,2-trifluoroethoxy)-phenyl]-1-piperazinyl}-propylcarbamoyl>-3-methyl-4-oxo-4H-1-benzopyran], the Ki in series [3] is more than 1000 nM.

As for `COc1cc2nc(N3CCN(C(=O)C4CCCO4)CC3)nc(N)c2cc1OC` (centres unmarked) [Terazosin, terazosin], the “UC ID50” value in series [4] was 20.6 µg/kg.

On to `CCOC(=O)c1oc2c(C(=O)NCCCN3CCN(c4cc(Cl)ccc4OC)CC3)cccc2c(=O)c1C` [Example 4, 2-Ethoxycarbonyl-8-{3-[4-(5-chloro-2-methoxyphenyl)-1-piperazinyl]-propylcarbamoyl}-3-methyl-4-oxo-4H-1-benzopyran], for which the “DBP ED25” value in series [1] is given as 163.3 µg/kg. In series [2], the ED50 stood at 0.0023 mg/kg and the DBP/UC was 71.0.

In the case of `COc1ccc(C#N)cc1N1CCN(CCCNC(=O)c2cccc3c(=O)c(C)c(-c4ccccc4)oc23)CC1` [Example 18, 8-{3-[4-(5-Cyano-2-methoxyphenyl)-1-piperazinyl]-propylcarbamoyl}-3-methyl-4-oxo-2-phenyl-4H-1-benzopyran], in series [1], the “DBP ED25” value came to 1297.6 µg/kg. Besides, in series [2], the ED50 was determined as 0.0341 mg/kg and the DBP/UC was 38.05.
